Measured values from patent US20080057136A1, “Disinfecting Composition and Methods of Making and Using Same” (priority 2003, published 2008).
≈ marks a conversion by molar mass, not a printed value. Where two headings read alike, the source gives them in different places.

Experiments:
[1] = system: dermatophyte infections; conditions: dermatophyte infections in animals; cited from earlier work
[2] = component at 100%; cited from earlier work
[3] = Acute oral toxicity, rat; conditions: for LD50: rat, in vivo, po
[4] = system: P. aeruginosa ATCC 15442; assay: NCCLS broth microdilution MIC and MBC (Example 10); assay type: cell-based, Pseudomonas aeruginosa
Experimental: (§4) Strains of E. coli (ATCC 11229), D. aeruginosa (ATCC 15442), S. aureus (ATCC 25923), S. epidermidis (ATCC 12228), S. pyogenes (ATCC 19615), C. albicans (ATCC 10231), and T. rubrum (ATCC 28188) were used as “challenge microorganisms” in this study. Strains were removed from frozen stock and subcultured twice on blood agar to ensure that the strains had optimal growth and metabolic status before testing.
(§5) Hibiclens (industry comparator) and ciprofloxacin were added to the bacterial panel. Amphotericin B, fluconazole, and Hibiclens were added as comparative agents in the fungal panels.
(§6) For testing purposes, AMC, AMC components, and Hibiclens were diluted to 50% of the working solution to cover the proposed AMC use dilution of 20%.
(§7) Microtiter panels were created on the day of MIC testing. A 50 μl aliquot of Mueller-Hinton broth (for bacterial strains) or RPMI 1640 (for fungal strains) was delivered to each well, except those in column one of the microtiter panel. The working solution of AMC and each of its components, and comparative agents were delivered to the designated wells in column one. AMC, components, and comparators were serially diluted across the panel. A 50 μl aliquot of bacterial or fungal suspension was then added to each well on the microtiter panel, using a new pipette tip for each aliquot. Panels were incubated at 35° C. for 16-20 h for the E. coli, P. aeruginosa, and S. aureus strains, 20-24 h for the S. pyogenes strain, and 48 h for the C. albicans strain.
(§8) The 10 μl samples were plated on to blood agar and incubated at 35° C. for 24 h (E. coli and P. aeruginosa) or 48 h (S. aureus, S. epidermidis, and S. pyogenes). After incubation, colony counts for each panel well plated were recorded.
(§9) The MIC % is expressed as g/100 ml or ml/100 ml. […] The MBC % is expressed as g/100 ml or ml/100 ml.

[5] = system: T. rubrum ATCC 28188; assay: NCCLS broth microdilution MIC and MFC (Example 11); assay type: cell-based, Trichophyton rubrum
Experimental: (§10) Strains of C. albicans (ATCC 10231) and T. rubrum (ATCC 28188) were tested in this study. Strains were removed from frozen stock and subcultured twice on blood agar to ensure that the strains had optimal growth and metabolic status before testing. Strains were tested by NCCLS broth microdilution (M27-A2, 2002) and challenged with AMC solution and its individual components […] ), and isopropanol. Amphotericin B, fluconazole, terbinafine, and Hibiclens were added as comparator compounds. […] Microtiter panels were created on the day of MIC testing. A 50 μl aliquot of RPMI 1640 was delivered to each well except those in column one of the microtiter panel. The working solution of AMC and each of its components, and comparative agents were delivered to the designated wells in column one; AMC, components, and comparators were serially diluted across the panel. A 50 μl aliquot of fungal suspension was then added to each well on the microtiter panel, using a new pipette tip for each aliquot. […] For amphotericin B, the endpoint was read as the complete inhibition of growth. […] MFCs were performed to determine the concentration at which ≧99% of the starting fungal inoculum was killed. […] After incubation, colony counts for each panel well plated were recorded. […] The endpoint for amphotericin B was read as complete inhibition of growth.

[6] = Acute dermal toxicity, rabbit; conditions: for LD50: rabbit, in vivo, topical or ocular
[7] = system: Staphylococcus aureus (ATCC 25923); assay: Time-Kill test (Example 9); assay type: cell-based; conditions: Study 509-101; at 30 seconds
Experimental: A panel of “challenge microorganisms,” including select bacteria, yeast, and fungi was used to assess the disinfecting properties of test compounds, e.g., AMC (DPT Laboratories). Specifically, the disinfectant property of test compounds were tested against Staphylococcus aureus (ATCC 25923); Staphylococcus epidermidis (ATCC 12228); Bacillus subtilis (ATCC 19659); Escherichia coli (ATCC 11229); and Pseudomonas aeruginosa (ATCC 15442) bacteria, as well as the yeast Candida albicans (ATCC 10231), and the fungus Trichophyton rubrum (ATCC 28188). The test procedure incorporated the recommendations described in the “Manual of Clinical Microbiology,” 5th ed., edited by A. B. Balows et al., ASM, Washington, as directed by the Federal Register, June 1994. […]
A single lot of test material was prepared at various concentrations, along with multiple compounds prepared in various concentrations and combinations. […] The plates were then incubated, and the average colony forming units (CFU) recovered per milliliter were determined for each contact time. […]
Bacteria and C. albicans from stock cultures were transferred into trypticase soya broth (TSB) and incubated for 18-24 hours at 37° C.±2° C. […] The microbe concentration was measured using a spectrophotometric technique well-known in the art. […]

[8] = system: S. epidermidis ATCC 12228; assay: NCCLS broth microdilution MIC and MBC (Example 10); assay type: cell-based, Staphylococcus epidermidis; conditions: for bactericidal activity: MBC within one doubling dilution of the MIC
Experimental: as §4, §5, §6, §7, §8, §9

[9] = system: S. pyogenes ATCC 19615; assay: NCCLS broth microdilution MIC and MBC (Example 10); assay type: cell-based, Streptococcus pyogenes
Experimental: as §4, §5, §6, §7, §8, §9

[10] = component at 100%; cited from earlier work; remark: listed apart in the source
[11] = system: T. rubrum ATCC 28188; assay: NCCLS broth microdilution MIC and MFC (Example 10); assay type: cell-based, Trichophyton rubrum; conditions: for MFC, %: 99.9% inhibition of growth
Experimental: as §4
(§11) Amphotericin B, fluconazole, and Hibiclens were added as comparative agents in the fungal panels.
as §6
(§12) Microtiter panels were created on the day of MIC testing. A 50 μl aliquot of Mueller-Hinton broth (for bacterial strains) or RPMI 1640 (for fungal strains) was delivered to each well, except those in column one of the microtiter panel. The working solution of AMC and each of its components, and comparative agents were delivered to the designated wells in column one. AMC, components, and comparators were serially diluted across the panel. A 50 μl aliquot of bacterial or fungal suspension was then added to each well on the microtiter panel, using a new pipette tip for each aliquot. Panels were incubated at 35° C. for 16-20 h for the E. coli, P. aeruginosa, and S. aureus strains, 20-24 h for the S. pyogenes strain, and 48 h for the C. albicans strain. T. rubrum panels were incubated for 3 to 4 days before MICs were read. […] Fungal MICs (%) were read using an 80% reduction in the growth endpoint relative to the turbidity of the growth control for AMC, its components, and fluconazole. For amphotericin B, the endpoint was read as the complete inhibition of growth.
(§13) MFCs were determined in a similar manner.
(§14) The endpoint for amphotericin B was read as complete inhibition of growth. The MIC % is expressed as g/100 ml or ml/100 ml. […] The MFC % is expressed as g/100 ml or ml/100 ml.

[12] = Acute inhalation toxicity, rat; conditions: for LC50: rat, in vivo, inhaled
[13] = system: S. aureus ATCC 25923; assay: NCCLS broth microdilution MIC and MBC (Example 10); assay type: cell-based, Staphylococcus aureus; conditions: for bactericidal activity: MBC within one doubling dilution of the MIC
Experimental: as §4, §5, §6, §7, §8, §9

[14] = system: Trichophyton rubrum (ATCC 28188); assay: Time-Kill test (Example 9); assay type: cell-based; conditions: for 30-Second Log Reduction from Initial T. rubrum CFU Values: Table 25, first value column
Experimental: A panel of “challenge microorganisms,” including select bacteria, yeast, and fungi was used to assess the disinfecting properties of test compounds, e.g., AMC (DPT Laboratories). […] The procedure was based on the ASTM procedure entitled, “Standard Test Method for the Assessment of Microbial Activity of Test Materials Using Time-Kill Procedure.”
A single lot of test material was prepared at various concentrations, along with multiple compounds prepared in various concentrations and combinations. These test materials were tested in duplicate against various bacteria, yeast and fungi. To minimize potential buffer interference and to minimize reduction of antimicrobial activity, the volume of the inoculum added to the test material was maintained at, or below, 1% of the total volume of the test. Samples were removed at various contact times. Serial dilutions were performed, and duplicate aliquots were plated. The plates were then incubated, and the average colony forming units (CFU) recovered per milliliter were determined for each contact time. The contact times for the test compounds with S. aureus, E. coli, P. aeruginosa, and C. albicans were 30 sec, 1 min, and 5 min. The contact times for the test compounds with B. subtilis were 1 and 10 min, 1 h, 2 h, 3 h, and 24 h. The contact times for the test compounds with T. rubrum were 30 sec, 1 min and 10 min. The contact temperature was ambient room temperature (20-21° C.).
The fungus, T. rubrum, was inoculated onto Emmon's agar (EA) and incubated at 25-30° C. for 10-15 days. The mycelial mats from mature cultures were removed from the surface of at least 5 plates and macerated with sterile saline (SS) in a sterile glass tissue grinder. The suspension was filtered through sterile glass wool to remove the hyphae.
The density of the conidial suspension was determined by serially diluting the prepared culture in BPDW. Aliquots from selected dilutions were plated on duplicate EA plates. The plates were incubated for 3-5 days at 25-30° C. and then each plate was examined for enumeration.
The suspension was stored at 2-10° C. for 4 weeks before use. On the day of testing, the suspension was adjusted to yield approximately 5.0×10^8 CFU by dilution with BPDW.
Compliant with the ASTM procedure cited above, the challenge microorganism was added to the test material by dispensing 99 ml of the test material into two sterile flasks, each containing a stir bar. The reaction flasks were allowed to equilibrate to the test temperature for at least 10 minutes. The flasks were placed in water baths on stir plates and maintained at the test temperature with stirring. A 1 ml aliquot of the prepared inoculum of the challenge microorganism was added to each flask to begin the contact period. At each contact time, 1 ml aliquot samples were removed and added to tubes containing 9 ml PBDW+. Serial 10-fold dilutions of each sample were then prepared in PBDW dilution blanks. Duplicate aliquots from selected dilutions were plated using the appropriate agar.
Upon completion of all contact periods, all plates were inverted and incubated for the appropriate time and temperature as follows: bacteria and yeast were incubated over 2 nights at 37° C.±2° C., and the fungus was incubated for at least 5 nights at 25-30° C. Following incubation, all plates were removed, the colonies were counted and the CFU recovered per ml at each contact time were calculated.

[15] = system: E. coli ATCC 11229; assay: NCCLS broth microdilution MIC and MBC (Example 10); assay type: cell-based, Escherichia coli
Experimental: as §4, §5, §6, §7, §8, §9

[16] = system: S. epidermidis; assay: MIC and MBC determination by doubling dilutions (Study 509-102); assay type: cell-based; conditions: Staphylococcus epidermidis, Inoculum Counts: 9.0 × 10^5
From the text: (§1) Table 2 below indicates the stock dilutions for each test agent, and a breakdown of the resulting concentrations for each of the doubling dilutions performed is summarized in Table 3.
(§2) From the stock dilutions, an initial 1:10 dilution was made (representing tube 1), followed by doubling dilutions (tubes 2-12), as detailed in Table 3.

[17] = system: Staphylococcus aureus; assay: as above; assay type: cell-based; conditions: Inoculum Counts: 7.5 × 10^6
From the text: as §1, §2

[18] = system: Escherichia coli; assay: as above; assay type: cell-based; conditions: Inoculum Counts: 9.4 × 10^5
From the text: as §1, §2

[19] = system: S. pyogenes; assay: as above; assay type: cell-based; conditions: Streptococcus pyogenes, Inoculum Counts: 9.8 × 10^5
From the text: as §1, §2

[20] = system: Pseudomonas aeruginosa; assay: as above; assay type: cell-based; conditions: Inoculum Counts: 8.8 × 10^5
From the text: as §1, §2

[21] = system: C. albicans; assay: as above; assay type: cell-based; conditions: Candida albicans, Inoculum Counts: 6.6 × 10^5
From the text: as §1, §2

[22] = system: T. rubrum; assay: as above; assay type: cell-based, Trichophyton rubrum; conditions: Trichophyton rubrum; Study 509-102; Inoculum Counts: 3.6 × 10^8
From the text: as §1, §2

[23] = in vivo; cited from earlier work
[24] = system: C. albicans ATCC 10231; assay: NCCLS broth microdilution MIC and MFC (Example 11); assay type: cell-based, Candida albicans
Experimental: as §10

[25] = system: C. albicans ATCC 10231; assay: NCCLS broth microdilution MIC and MFC (Example 10); assay type: cell-based, Candida albicans
Experimental: as §4, §11, §6, §12, §13, §14

[26] = system: Hepatitis B virus; conditions: virus in dried human plasma exposed 10 min at 20 deg C. to 70% isopropanol; 9 months observation; cited from earlier work
[27] = component at 100%; cited from earlier work; remark: listed apart in the source
[28] = component at 100%; cited from earlier work; remark: listed apart in the source
[29] = system: Bacillus cereus (strain 96); assay: Time-kill test, initial studies (death time, sporicidal activity); assay type: cell-based; conditions: Conc. 5.0 %
[30] = system: E. coli (strain 1257); assay: Time-kill test, initial studies (death time); assay type: cell-based, Escherichia coli
From the text: (§3) Time-kill tests were used to measure the disinfecting property of test compounds, e.g., microbiocidal or sporicidal compositions, using select bacterial challenge microorganisms such as the vegetative forms of, e.g., E. coli (strain 1257) S. aureus (strain 906), and Bacillus cereus (strain 96).

[31] = system: S. aureus (strain 906); assay: Time-kill test, initial studies (death time); assay type: cell-based, Staphylococcus aureus
From the text: as §3

[32] = Example 10, % as g/100 ml or ml/100 ml
[33] = 80% reduction in growth endpoint
[34] = MFC within 1 doubling dilution of the MIC
[35] = Estimated for AMC contained concentrations

CC(C)N1CCN(c2ccc(N3CCN(c4ccc(OC[C@H]5OC[C@](Cn6cncn6)(c6ccc(F)cc6F)O5)cc4)CC3)cc2)C1=O [Azoline]
activity relative to itraconazole [1]: 5 times

CCCCCCCCCCCCCCCC[n+]1ccccc1 [CPC, Cetyl Pyridinium Chloride]
Rabbit Dermal LD50 [2]: >2,000 mg/Kg | LD50 [3]: 20000 mg/kg | MBC, % [4, 32]: 0.04% | MBC ([4]; Pseudomonas aeruginosa, ATCC15442): 400 mg/L | MFC, % ([5]; Example 11): ≤ 0.0007% | MFC ([5]; Trichophyton rubrum, ATCC28188): ≤ 7 mg/L | LD50 [6]: > 20000 mg/kg | reduction of S. aureus count [7]: 2 log10 | MCB (μg/ml) [8]: (<=7) μg/ml | MCB, % ([8]; % as g/100 ml or ml/100 ml): <=0.0007% | MBC, % [9, 32]: <=0.0007% | MBC ([9]; Streptococcus pyogenes, ATCC19615): ≤ 7 mg/L | Rat Inhalation LC50 [10]: 0.090 mg/L | MFC, % ([11]; Example 10): ≤ 0.0007% | MFC ([11]; Trichophyton rubrum, ATCC28188): ≤ 7 mg/L | LC50 [12]: 9 mg/L | MBC, % [13, 32]: <=0.0007% | MBC ([13]; Staphylococcus aureus, ATCC25923): ≤ 7 mg/L | 30-Second Log Reduction from Initial T. rubrum CFU Values [14]: 3.4 Logs

O=C(O)c1cn(C2CC2)c2cc(N3CCNCC3)c(F)cc2c1=O [Ciprofloxacin]
MIC ([4]; Pseudomonas aeruginosa, ATCC15442, Example 10): 0.12 mg/L (≈ 0.362 µM) | MBC ([4]; Pseudomonas aeruginosa, ATCC15442, Example 10, read-out: MBC): 0.5 mg/L (≈ 1.51 µM) | MIC ([15]; Escherichia coli, ATCC11229): ≤ 0.03 mg/L | MBC [16]: > 0.1 mg/L | MIC [16]: > 0.1 mg/L | MBC [17]: > 0.1 mg/L | MIC [17]: > 0.1 mg/L | MBC [18]: > 0.1 mg/L | MIC [18]: > 0.1 mg/L | MBC [19]: > 0.1 mg/L | MIC [19]: > 0.1 mg/L | MBC [20]: > 0.1 mg/L | MIC [20]: > 0.1 mg/L | MBC [21]: > 0.1 mg/L | MIC [21]: > 0.1 mg/L | MCB [8]: 0.25 µg/mL | bactericidal activity [8]: bactericidal activity | MIC ([8]; Staphylococcus epidermidis, ATCC12228): 0.25 mg/L (≈ 0.754 µM) | MIC ([9]; Streptococcus pyogenes, ATCC19615, Example 10): 0.5 mg/L (≈ 1.51 µM) | MBC ([9]; Streptococcus pyogenes, ATCC19615, Example 10, read-out: MBC): 0.5 mg/L (≈ 1.51 µM) | MBC [22]: > 0.1 mg/L | MIC [22]: > 0.1 mg/L | bactericidal activity ([13]; Example 10): bactericidal activity | MIC ([13]; Staphylococcus aureus, ATCC25923, Example 10): 0.5 mg/L (≈ 1.51 µM) | MBC ([13]; Staphylococcus aureus, ATCC25923, Example 10, read-out: MBC): 0.5 mg/L (≈ 1.51 µM)

C=C1/C(=C/C=C2\CCC[C@]3(C)[C@@H]([C@@H](C)CCC(=O)N4CCCCC4)CC[C@@H]23)C[C@@H](O)C[C@@H]1O [Ecalcidene]
dose with immunological effects, times lower than doses causing toxicity associated with hypercalcemia [23]: 10-100 times

CC(C)O [Isopropanol]
MFC, % [24]: 1.5% | MIC, % [24, 33]: 0.8% | fungicidal activity [24, 34]: Fungicidal activity | MIC, % [25, 33]: 1.5% | MFC, % ([25]; 99.9% inhibition of growth): 1.5% | fungicidal activity [25, 34]: Fungal activity | Rabbit Dermal LD50 [2]: 12,800 mg/Kg | LD50 [3]: > 5000 mg/kg | MBC, % [4, 32]: 12.3% | MIC, % [4, 32]: 3.1% | MFC, % ([5]; Example 11): 3.1% | MIC, % ([5]; Example 11, 80% reduction in growth endpoint): 0.2% | fungicidal activity ([5]; Example 11, MFC within 1 doubling dilution of the MIC): did not demonstrate fungicidal activity | LD50 [6]: 25600 mg/kg | MIC, % ([15]; % as g/100 ml or ml/100 ml): 6.1% | MCB, % ([8]; % as g/100 ml or ml/100 ml): 24.5% | MIC, % ([8]; % as g/100 ml or ml/100 ml): 12.3% | bactericidal activity [8]: bactericidal activity | infection after intravenous inoculation of treated viral material [26]: did not show signs of infection | MBC, % [9, 32]: 12.3% | MIC, % [9, 32]: 12.3% | Rat Inhalation LC50 [10]: 72.6 mg/L | Rat Oral LD50 [27]: >5,000 mg/Kg | MIC, % ([11]; Example 10, 80% reduction in growth endpoint): 0.2% | MFC, % ([11]; Example 10): 0.4% | fungicidal activity ([11]; Example 10, MFC within 1 doubling dilution of the MIC): Fungicidal activity was observed | LC50 [12]: 145 mg/L (≈ 2410 µM) | MBC, % [13, 32]: 24.6% | MIC, % [13, 32]: 12.3% | bactericidal activity ([13]; Example 10): bactericidal activity | Relative Kill Potency [14]: 0.64 | reduction of T. rubrum count ([14]; Study 509-101, in 30 sec): not effective | 30-Second Log Reduction from Initial T. rubrum CFU Values [14]: 0.8 Logs

[O-2].[Zn+2] [Zn oxide (100%), Zn oxide]
Rabbit Dermal LD50 [2]: >2,000 mg/Kg | Rat Oral LD50 [3, 35]: >>100,000 mg/Kg | Rabbit Dermal LD50 [6, 35]: >>100,000 mg/Kg | Rat Oral LD50 (*Mouse data) [28]: 7,950 mg/Kg | Rat Inhalation LC50 [10]: >0.005 mg/L | Rat Inhalation LC50 [12, 35]: >4.2 mg/L

Monoglycinatecopper chloride complex
Death time of test-microorganisms (min) B. cereus [29]: >360 min | Death time of test-microorganisms (min) E. coli ([30]; Conc. 0.1 %): >30 min | Death time of test-microorganisms (min) E. coli ([30]; Conc. 0.2 %): 30 min | Death time of test-microorganisms (min) E. coli ([30]; Conc. 0.5 %): 15 min | Death time of test-microorganisms (min) S. aureus ([31]; Conc. 0.1 %): >30 min | Death time of test-microorganisms (min) S. aureus ([31]; Conc. 0.2 %): >30 min | Death time of test-microorganisms (min) S. aureus ([31]; Conc. 0.5 %): >30 min | Death time of test-microorganisms (min) S. aureus ([31]; Conc. 5.0 %): >30 min
